Experimental data from US10494363B2, “Non-steroidal glucocorticoid receptor modulators for local drug delivery” (LEO PHARMA A/S, priority 2015, dated 2019).

Experiments:
[1] = system: TNF alpha release from human PBMCs; experiment: Inhibition of TNF alpha release from human PBMCs; assay type: cell-based; conditions: PBMC, LPS 1 μg/ml, 18 hours, AlphaLISA
Method: PBMC were isolated from fresh buffy coats by density centrifugation using lymphoprep (Medinor AB, cat no 1019818) tubes. Isolated PBMCs were washed in assay medium (RPMI1640 with 25 mM HEPES, 1% pen/strep, 200 mM L glutamine and 10% Foetal calf serum). Surplus PBMCs were frozen in medium containing extra 10% foetal calf serum and 5% DMSO. On the assay day, fresh cells or cryopreserved cells after thawing were washed in serum free medium (RPMI1640 with 25 mM HEPES, 1% pen/strep, 200 mM L glutamine and 0.5% human serum albumin) and counted, in order to determine the fraction of living cells (generally >95%).
Test compounds were diluted in DMSO over seven orders of magnitude, further diluted in serum-free medium and distributed into wells of 384 well tissue culture plates. LPS was added to a final concentration of 1 μg/ml to the cells. Immediately thereafter titrated test compounds were added and incubated for 18 hours at 37° C.
The level of TNF-a in the culture supernatant was quantitated by AlphaLISA (Perkin Elmer). 2-(3,5-dichloro-4-pyridinyl)-1-(7-methoxyspiro[1,3-benzodioxole-2,1′-cyclopentan]-4-yl)-ethanone (CAS 185406-34-2) at 100×IC50 was used to define the assay window.
Data were processed by sigmoidal curve fitting. EC50 and Emax were determined from the curve fits.

[2] = Human liver microsomes (HLM) assay; assay type: in vitro ADME; conditions: hepatic extraction ratio; 0.5 μM compound, 0.5 mg/mL microsomes, NADPH, 37° C.
Method: Incubations of test compounds in DMSO, diluted with phosphate buffer, pH 7.4, at 0.5 μM were carried out with human liver microsomes (0.5 mg/mL). The percentage of organic solvent in the incubations was 1%. The human liver microsomal suspension in phosphate buffer was mixed with NADPH (1 mM) and preheated to 37° C. before test compound was added. Aliquots were taken at 0, 5, 10, 20 and 30 minutes, and reactions were terminated by addition of methanol containing analytical internal standard (IS).
The results were expressed as apparent clearance (Clapp) (mL/min/kg) and hepatic extraction ratio (Eh) (%) calculated from the rate constant (k) (min^−1) of test compound depletion.

[3] = target: T1, glucocorticoid receptor (GR), recombinant full-length receptor protein (Homo sapiens, UniProt P04150); experiment: Glucocorticoid receptor binding assay (fluorescence polarization kit); conditions: 4 nM receptor, 2.5 nM Fluormone GS1 tracer, 2h room temperature, read-out: GR binding ABS IC50
T1 construct: 4 nM recombinant, full-length receptor protein was incubated with increasing concentrations of GR ligand; purchased Life Technologies A-15897
T1 sequence (P04150 1-777): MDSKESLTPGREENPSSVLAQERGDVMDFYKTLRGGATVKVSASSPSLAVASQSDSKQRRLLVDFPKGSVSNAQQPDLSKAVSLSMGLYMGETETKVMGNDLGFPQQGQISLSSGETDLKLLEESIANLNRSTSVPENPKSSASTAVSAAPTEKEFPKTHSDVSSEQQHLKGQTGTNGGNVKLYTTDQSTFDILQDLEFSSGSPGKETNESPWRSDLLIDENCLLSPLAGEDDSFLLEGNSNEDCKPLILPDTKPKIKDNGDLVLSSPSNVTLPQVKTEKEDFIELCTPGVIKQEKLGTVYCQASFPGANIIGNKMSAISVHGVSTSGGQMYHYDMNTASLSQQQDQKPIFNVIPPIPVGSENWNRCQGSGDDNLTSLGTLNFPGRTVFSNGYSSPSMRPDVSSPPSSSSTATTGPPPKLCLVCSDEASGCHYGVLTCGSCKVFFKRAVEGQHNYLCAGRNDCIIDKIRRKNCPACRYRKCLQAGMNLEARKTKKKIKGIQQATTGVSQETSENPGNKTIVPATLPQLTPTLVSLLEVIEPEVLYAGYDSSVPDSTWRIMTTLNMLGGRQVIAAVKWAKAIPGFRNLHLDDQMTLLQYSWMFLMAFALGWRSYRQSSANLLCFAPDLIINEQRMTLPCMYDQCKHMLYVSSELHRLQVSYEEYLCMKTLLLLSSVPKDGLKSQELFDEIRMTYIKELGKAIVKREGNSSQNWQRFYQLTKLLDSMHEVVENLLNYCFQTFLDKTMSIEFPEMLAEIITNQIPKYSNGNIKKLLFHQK
Method: Test compounds were diluted in DMSO over seven orders of magnitude, further diluted in assay buffer and distributed into 384-well plates. The sensitivity limit of this assay was 2-4 nM.
Data were processed by sigmoidal curve fitting.
Absolute (Abs) IC50 and Emax were determined from the curve fits.

| SMILES | EC50 [1] | HLM assay Eh (%) [2] | IC50 [3] |
| --- | --- | --- | --- |
| Cc1ccc([C@@H](Oc2ccc(C(=O)N[C@@H]3CCCN(C(=O)[C@H]4COC(=O)C4)C3)nc2)[C@H](C)NC(=O)C(F)(F)F)cc1 [Compound 59, N-[(3R)-1-[(3R)-5-oxotetrahydrofuran-3-carbonyl]-3-piperidyl]-5-[(1R,2S)-1-(p-tolyl)-2-[(2,2,2-trifluoroacetyl)amino]propoxy]pyridine-2-carboxamide] | < 100 nM | ** (50%<extraction ratio (Eh)<90%) | – |
| Cc1ccc([C@@H](Oc2ccc(C(=O)N[C@H]3CCCN(C(=O)[C@H]4COC(=O)C4)C3)nc2)[C@H](C)NC(=O)C(F)(F)F)cc1 [Compound 1, N-[(3S)-1-[(3R)-5-oxotetrahydrofuran-3-carbonyl]-3-piperidyl]-5-[(1R,2S)-1-(p-tolyl)-2-[(2,2,2-trifluoroacetyl)amino]propoxy]pyridine-2-carboxamide] | < 100 nM | * (extraction ratio (Eh)>90%) | – |
| Cc1ccc([C@@H](Oc2ccc(C(=O)N[C@H]3CCCN(C(=O)O[C@H]4COC(=O)C4)C3)nc2)[C@H](C)NC(=O)C(F)(F)F)cc1 [Compound 76, [(34)-5-oxotetrahydrofuran-3-yl] (3S)-3-[[5-[(1R,2S)-1-(p-tolyl)-2-[(2,2,2-trifluoroacetyl)amino]propoxy]pyridine-2-carbonyl]amino]piperidine-1-carboxylate] | 100 to 300 nM | – | < 100 nM |
| C[C@H](NC(=O)[C@@H]1CCCO1)[C@H](Oc1ccc(C(=O)O[C@H]2CCCN(C(=O)[C@H]3COC(=O)C3)C2)cc1)c1ccc(C2CC2)cc1 [Compound 78, [(3S)-1-[(3R)-5-oxotetrahydrofuran-3-carbonyl]-3-piperidyl] 4-[(1R,2S)-1-(4-cyclopropylphenyl)-2-[[(2S)-tetra hydrofuran-2-carbonyl]amino]propoxy]benzoate] | < 100 nM | – | < 100 nM |
| C[C@H](NC(=O)C1CCCO1)[C@H](Oc1ccc(C(=O)O[C@H]2CCCN(C(=O)C3COC(=O)C3)C2)cc1)c1ccc(C2CC2)cc1 (stereo in doubt) [Compound 79, [(3S)-1-[(3R)-5-oxotetrahydrofuran-3-carbonyl]-3-piperidyl] 4-[(1R,2S)-1-(4-cyclopropylphenyl)-2-[[(2R)-tetrahydrofuran-2-carbonyl]amino]propoxy]benzoate] | < 100 nM | – | < 100 nM |
| Cc1ccc([C@@H](Oc2ccc(C(=O)N[C@H]3CCCN(C(=O)N[C@H]4COC(=O)C4)C3)nc2)[C@H](C)NC(=O)C(F)(F)F)cc1 [Compound 72, N-[(3S)-1-[[(3R)-5-oxotetrahydrofuran-3-yl]carbamoyl]-3-piperidyl]-5-[(1R,2S)-1-(p-tolyl)-2-[(2,2,2-trifluoroacetyl)amino]propoxy]pyridine-2-carboxamide] | 100 to 300 nM | – | < 100 nM |
| C[C@H](NC(=O)C(F)(F)F)[C@H](Oc1ccc(C(=O)N[C@H]2CCCN(C(=O)[C@H]3COC(=O)C3)C2)nc1)c1ccc(Br)cc1 [Compound 67, 5-[(1R,2S)-1-(4-bromophenyl)-2-[(2,2,2-trifluoroacetyl)amino]propoxy]-N-[(3S)-1-[(3R)-5-oxotetrahydrofuran-3-carbonyl]-3-piperidyl]pyridine-2-carboxamide] | < 100 nM | – | < 100 nM |
| C[C@H](NC(=O)[C@H]1CCCO1)[C@H](Oc1ccc(C(=O)O[C@H]2CCCN(C(=O)[C@@H]3COC(=O)C3)C2)cc1)c1ccc(C2CC2)cc1 [Compound 77, [(3S)-1-[(3S)-5-oxotetrahydrofuran-3-carbonyl]-3-piperidyl] 4-[(1R,2S)-1-(4-cyclopropylphenyl)-2-[[(2R)-tetrahydrofuran-2-carbonyl]amino]propoxy]benzoate] | < 100 nM | – | < 100 nM |
